# Data reported in patent US20170131285A1, “METHODS AND COMPOSITIONS FOR DIAGNOSING, MONITORING AND TREATING CANCER” (INSERM (Institut National de la Sante et de la Recherche …, priority 2014, published 2017).
# Where no end group is shown, it is not given here.
# How the values were obtained:
# HSP70/TLR2 association = molecular target: T1, HSP70/TLR2 association (Homo sapiens, UniProt P0DMV8); assay: In vitro co-immunoprecipitation of TLR2 followed by HSP70 immunoblotting; type: binding; settings: A8 from 0.3 μM to 1.8 μM, HSP70 immunoblot
# T1 construct: HA; made in house; host or cells: cell-free: TNT Quick Coupled Transcription/Translation System (Promega)
# Protocol: FIG. 3: A8 blocks HSP70/TLR2 association. (A) Immunoprecipitation of TLR2 in the presence of increasing concentrations of A8 (from 0.3 μM to 1.8 μM) was followed by HSP70 immunoblotting. IP control, no relevant IgG antibody. (B) Denatured luciferase (D) was incubated in the absence or presence of human HSP70 and, when indicated, increasing concentrations of A8 (C1=5 μM; C2=15 μM; C3=25 μM and C4=50 μM) for 1 hour at 25° C. Following incubation, the luciferase substrate D-luciferin was added and within 10 minutes the total light units emitted were collected for 10 seconds at 560 nm using a Wallac (Victor 3) spectrophotometer. *, p<0.05. (C) Biolayer interferometry to determine association and dissociation curves of HSP70 (concentration range from 2.5 μM to 156 nM) with biotinylated TRL2 immobilized on streptavidin sensor tips. (D) Association and dissociation curves of HSP70 (concentration range from 50 nM to 1.28 nM) with biotinylated A8 immobilized on streptavidin sensor tips. Curves in C and D represent mean values of triplicate measurements for each concentration.
# For the in vitro coimmunoprecipitation, we used A8 or TLR2 recombinants proteins. […] The immunoprecipitated proteins were analysed by western blot.
# For the in vitro co-immunoprecipitation, we used A8 or TLR2 recombinants proteins. […] The immunoprecipitated proteins were analyzed by western blot.
# MSC2 cells = assay: MSC2 proliferation (RTCA-DP, BrdU); type: cell-based; settings: exosomes from B16F10, A8 16 μM and 32 μM
# Protocol: FIG. 9: TDE and A8 effects on MSC2 and MDSC proliferation. A) Dynamic monitoring of in vitro MSC2 cell proliferation using the RTCA-DP system (Real-Time Cell Analyzer). MSC2 were incubated or not for 11 h with exosomes (from B16F10) in the absence or presence of A8 (16 μM and 32 μM). Cell index values were measured every 30 seconds (n=3). B) MSC2 were incubated or not for 24 h with exosomes (from B16F10) in the absence or presence of A8 (16 μM). Then, cells were labelled with BrdU and incorporation was determined by flow cytometry (n=3). C) MDSC were treated with exosomes (from B16F10) in the absence or presence of A8 ([…]) for 24 hours and then analyzed for proliferation by Cellometer-mini. *p<0.05.
# MSC2 cells proliferation were analyzed by to different techniques. First, MSC2 (1·10^4) were seeded onto 16-well plates with medium containing 10% FBS and incubated for 34 hours. […] Into each well of the micro-electronic sensor transendothelial electric resistance (TER) was measured by xCELLigence real time cell analyzer DP system (Roche). TER was measured every 30 s and then normalized to the initial value. […] MDSC proliferation was analyzed by cell counting. MDSC cells (1·10^6) from spleen of naive mice (see MDSC isolation section) were treated or not with exosomes (from B16F10) in the absence or presence of A8 (16 μM) for 24 hours and then analyzed for viability by Cellometer-mini (Ozyme).
# EL4 tumors = assay: EL4 lymphoma tumor model in C57BL6 mice; type: in vivo, mouse
# Protocol: FIG. 10: A8 anti-tumor effect in mice is associated with an increased anti-tumor immune response. Mice were s.c. injected with EL4 cells (7·10^5). On day 5, animals were treated every two days until the end of the experiment with either A0 (control aptamer) or A8 (3 mg/kg, i.p. injection). On day 6, half the animals were i.p. treated with a single dose of 5-fluorouracil (5FU, 25 mg/kg). A) At day 10, the percentage of MDSC (Gr1^+ CD11b^+) cells in the spleen collected from the different groups of mice was analyzed by flow cytometry (6 animals per group). As a negative control (Ctl) we used animals with no tumors. B) Tumor size was measured every two days (6 animals per group; n=3). The open symbols represent animals treated with 5FU. T test: *, p<0.05, **, p<0.01, (n=3). C) EL4 tumor sections were performed 10 days after injection of A8. Dendritic cells and macrophages were labeled using, CD11c and F4/80 antibodies. A representative image is shown (n=6 per group). Labeled cells were counted from 300 cells chosen randomly in different microscopic fields.
# Animals were killed 15 or 18 days after cell injection. The site of tumor cell injection was resected and snap-frozen in liquid nitrogen. An immunohistochemical study of tumor-infiltrating inflammatory cells was performed on acetone-fixed 5 μm cryostat sections. Tumoral biopsies were blocked in PBS with 3% of BSA (10 min, RT) anti-CD11c (1/50, monoclonal, BD Pharmingen), anti-CD3 (1/50, monoclonal, BD Pharmingen), anti-F4/80 (1/100, monoclonal, BD Pharmingen), diluted in PBS with 1% of BSA, was added on slides and incubated 45 minutes at RT, after washing with PBS. Nuclei were colored with mounting medium: Prolong Gold with Dapi (Molecular Probe). […] Images were acquired using an AxioCam MRm monochrome CCD camera (Carl Zeiss GmbH). Six pictures were taken in random fields for each labeling, and analyzed using image J software.
# To confirm A8 in vivo results shown in FIG. 5, the inventors have used another syngeneic model: lymphoma EL4 tumors developed in C57BL6 mice. […]
# [1] = after systemic administration; cited from earlier work
# T1 sequence (P0DMV8 whole entry): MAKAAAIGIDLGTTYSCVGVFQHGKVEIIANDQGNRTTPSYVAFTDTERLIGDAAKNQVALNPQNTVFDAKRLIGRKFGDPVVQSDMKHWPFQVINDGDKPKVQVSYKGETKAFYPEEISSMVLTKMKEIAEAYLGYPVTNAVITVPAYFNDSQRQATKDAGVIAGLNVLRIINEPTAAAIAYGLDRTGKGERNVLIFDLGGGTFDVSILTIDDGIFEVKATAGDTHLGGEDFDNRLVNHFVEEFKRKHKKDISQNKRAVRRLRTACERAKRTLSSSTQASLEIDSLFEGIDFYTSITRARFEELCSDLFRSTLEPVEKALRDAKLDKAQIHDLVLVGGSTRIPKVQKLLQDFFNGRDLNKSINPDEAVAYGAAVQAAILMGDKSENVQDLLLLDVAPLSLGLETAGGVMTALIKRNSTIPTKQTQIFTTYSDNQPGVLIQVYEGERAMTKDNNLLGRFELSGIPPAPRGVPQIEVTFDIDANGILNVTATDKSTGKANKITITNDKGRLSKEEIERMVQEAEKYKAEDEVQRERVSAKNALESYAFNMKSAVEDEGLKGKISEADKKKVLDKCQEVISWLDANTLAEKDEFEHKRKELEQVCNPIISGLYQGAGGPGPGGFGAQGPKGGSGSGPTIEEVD
sequence,measurement,setting,value
"SPWPRPTY [Aptamer A8, SPWPRPTY]",HSP70 association to TLR2,HSP70/TLR2 association,inhibited by A8 in a dose-dependent manner
same,TDE-induced proliferation of MSC2,MSC2 cells,blocked
same,tumor infiltration by immune cells,EL4 tumors,strongly infiltrated by different immune cells
same,number of MDSC in the spleen,"EL4 tumors; A8 3 mg/kg i.p. every two days, day 10",a decrease in the number of MDSC in the spleen
same,size of the tumors,"EL4 tumors; A8 3 mg/kg i.p., with or without single dose 5FU 25 mg/kg i.p.",a decrease in the size of the tumors mainly when added in combination to 5FU
same,biodistribution (localization of the peptide),[1],localizes mainly in the tumor area
